In patent US20240418707A1, “SELF-ORGANIZING NEURO-MUSCULAR JUNCTION CELL CULTURE MODEL” (Max-Delbrück-Centrum für Molekulare Medizin in der …, priority 2023, published 2024):
“Also recorded” adds a separate entry of the source.

Tests used:
Type in all cases: cell-based, human
[1] = system: skeletal muscles in the soNMJ model; test: Contraction analysis of soNMJ model by live imaging; conditions: soNMJ model day 75, control hPSC lines (H1, XM001); 10 μM curare
Experimental: (§1) Three different regions of the same coverslip were recorded for contraction analysis using a Leica SP8 confocal microscope. Each region was recorded twice for 3 minutes using brightfield with 20× zoom. To quantify the muscle contraction, each movie was analyzed individually using MuscleMotion (an open source ImageJ Macro). A reference frame was automatically detected by MuscleMotion to measure the contraction as a variation in pixel over time. The results were then plotted in Prism8 (GraphPad).

[2] = system: NMJs of the soNMJ model; test: Optogenetic (Channelrhodopsin) stimulation of neurons with muscle contraction readout
Experimental: For specifically stimulating neurons in the neuromuscular culture, cells were incubated with 1E+9 VG/mL AAV8-hSyn-hChR2 (H134R)-GFP for 48 h at day 50. After 3-4 weeks, the expression of ChR2 (H134R)-GFP was assessed using a confocal microscope. Cultures were transferred to the electrophysiology setup described above, and continuously superfused with HEPES-buffered extracellular solution at room temperature. Bright-field images of 2048×2048 were acquired at 10 Hz using an sCMOS camera (Photometrics Prime BSI Express) with 50 ms exposure time. Every 50 s, ChR2-expressing neurons were optically stimulated with three 5-ms flashes of 470 nm light at 10 Hz, with 10 mW/mm2 intensity. For the analysis, the muscle contraction recorded in brightfield was quantified using MuscleMotion (described below), plotted in Prism8 (GraphPad) and correlated to the light […] pulses.
as §1

[3] = system: skeletal muscle fibers and neurons of the soNMJ model; test: Calcium imaging with Fluo8 in neuromuscular cultures; conditions: day 75, Fluo8-AM, 10 μM curare
Experimental: Between day 50 and day 100, the cells were incubated at 37° C. with […] of the cell permeant calcium indicator Fluo-8 AM (Abcam). After 30 minutes of incubation, the cells were washed two times with culture medium (NB without phenol red) and left to recover for 15 min in the incubator prior to the start of any optical recording. During acquisition, the samples were kept at 37° C. with 5% CO2. Fluorescent time series images were acquired with a CSU-W1 spinning disk confocal microscope. The calcium transients were recorded for 2-3 minutes at 20 frames per second in three different conditions: without any treatment, with addition of […] Acetylcholine (Sigma Aldrich) and with addition of 10 μM Curare (Sigma Aldrich).
Analysis of the calcium activity was performed by measuring the variation of fluorescence intensity in each ROI with ImageJ. ROIs were detected manually, and neurons and muscle cells could be distinguished by morphology. The variation of fluorescence intensity for each individual ROI was then plotted in Prism 8 (GraphPad).

[4] = system: SMA type I hiPSC derived soNMJ cultures; test: Muscle contraction analysis in SMA type I soNMJ model; conditions: day 50, 10 μM, compared to H1 control
Experimental: as §1

## curare
[1]
  skeletal muscle contraction: blocked the contraction of the skeletal muscles
[2]; day 75, 470 nm light pulse, 10 μM curare
  muscle contraction upon optogenetic stimulation of ChR2-GFP+ neurons: inhibition of muscle contraction even upon optogenetic stimulation; also recorded: blocked the optogenetic stimulation of the skeletal muscles
[2]; day 75, after washing out curare
  muscle contraction response to blue light stimulation after washout: restored by washing out curare
[3]
  calcium activity / firing of the neurons: without affecting the firing of the neurons
  calcium activity in skeletal muscle fibers: blocked the calcium activity in the skeletal muscle fibers; also recorded: abolished the calcium activity in the skeletal muscles
[4]
  muscle contraction in SMA type I soNMJ: did not respond; also recorded: failed to stop spontaneous muscle activity
